Measured values published in publication PMC10648927, “Examining the activity of cefepime-taniborbactam against Burkholderia cepacia complex and Burkholderia gladioli isolated from cystic fibrosis patients in the United States” (Antimicrobial Agents and Chemotherapy, 2023).
Values after ≈ are worked out from the molar mass of the structure shown.

Tests used:
Design in all cases: agar dilution MIC, growth inhibition of clinical Burkholderia isolates
[1] = system: T1, B. arboris AU24192; assay: organism not typed
T1 construct: AU24192
From the text: (§1) We evaluated the activity of cefepime-taniborbactam against a panel of 140 Bcc clinical isolates (i.e., species ambifaria, arboris, cenocepacia, cepacia, contaminans, diffusa, dolosa, multivorans, pseudomultivorans, pyrrocinia, seminalis, stabilis, ubonensis, and vietnamiensis) and 10 B. gladioli from the Burkholderia cepacia Research Laboratory and Repository (University of Michigan) ([22], [25], [31]) (Supplementary Material, Tables S1 and S2). K. pneumoniae ATCC 700603 carrying bla SHV-18 and K. pneumoniae ATCC BAA-1705 harboring bla KPC strains were used as controls for β-lactam and β-lactamase inhibitor integrity; all controls tested within the anticipated quality control ranges (Table S3). Minimum inhibitory concentration (MIC) results were interpreted using Clinical Laboratory Standards Institute (CLSI) breakpoints, where available ([32]). […] An alternative cefepime-taniborbactam provisional susceptible breakpoint of ≤16 µg/mL is supported by in vivo efficacy data from neutropenic murine infection models (thigh, complicated urinary tract, and lung) ([15] [–] [17]) and data from safety and pharmacokinetics studies in human volunteers ([33], [34]). The cefepime-taniborbactam antimicrobial activity was compared to cefepime, meropenem, meropenem-vaborbactam, and levofloxacin, to data published for first-line agents (e.g., ceftazidime and trimethoprim-sulfamethoxazole) and to those recommended by the CLSI for clinical testing (e.g., minocycline) against the Bcc and B. gladioli panel ([22], [32]). Of note, the MICs of all these agents were determined by the agar dilution method, which alongside broth microdilution, are recommended by the CLSI to assess the antimicrobial susceptibility of Bcc isolates ([32]).

[2] = system: T2, B. cenocepacia AU11339; assay: microbe, parasite or virus in culture; details: Burkholderia cenocepacia, AU11339
T2 construct: AU11339
From the text: as §1

[3] = system: T3, B. cenocepacia AU141094; assay: microbe, parasite or virus in culture; details: Burkholderia cenocepacia, AU141094
T3 construct: AU141094
From the text: as §1

[4] = system: T4, B. cenocepacia AU14381; assay: microbe, parasite or virus in culture; details: Burkholderia cenocepacia, AU14381
T4 construct: AU14381
From the text: as §1

[5] = system: T5, B. cenocepacia AU6550; assay: microbe, parasite or virus in culture; details: Burkholderia cenocepacia, AU6550
T5 construct: AU6550
From the text: as §1

[6] = system: T6, B. cepacia AU13354; assay: microbe, parasite or virus in culture; details: Burkholderia cepacia, AU13354
T6 construct: AU13354
From the text: as §1

[7] = system: T7, B. cepacia AU1555; assay: microbe, parasite or virus in culture; details: Burkholderia cepacia, AU1555
T7 construct: AU1555
From the text: as §1

[8] = system: T8, B. cepacia AU15677; assay: microbe, parasite or virus in culture; details: Burkholderia cepacia, AU15677
T8 construct: AU15677
From the text: as §1

[9] = system: T9, B. cepacia AU16396; assay: microbe, parasite or virus in culture; details: Burkholderia cepacia, AU16396
T9 construct: AU16396
From the text: as §1

[10] = system: T10, B. cepacia AU19265; assay: microbe, parasite or virus in culture; details: Burkholderia cepacia, AU19265
T10 construct: AU19265
From the text: as §1

[11] = system: T11, B. gladioli AU27927; assay: organism not typed
T11 construct: AU27927
From the text: as §1

[12] = system: T12, B. multivorans AU10086; assay: microbe, parasite or virus in culture; details: Burkholderia multivorans, AU10086
T12 construct: AU10086
From the text: as §1

[13] = system: T13, B. multivorans AU11358; assay: microbe, parasite or virus in culture; details: Burkholderia multivorans, AU11358
T13 construct: AU11358
From the text: as §1

[14] = system: T14, B. multivorans AU15814; assay: microbe, parasite or virus in culture; details: Burkholderia multivorans, AU15814
T14 construct: AU15814
From the text: as §1

[15] = system: T15, B. multivorans AU23690; assay: microbe, parasite or virus in culture; details: Burkholderia multivorans, AU23690
T15 construct: AU23690
From the text: as §1

[16] = system: T16, B. multivorans AU23919; assay: microbe, parasite or virus in culture; details: Burkholderia multivorans, AU23919
T16 construct: AU23919
From the text: as §1

[17] = system: T17, B. multivorans AU24277; assay: microbe, parasite or virus in culture; details: Burkholderia multivorans, AU24277
T17 construct: AU24277
From the text: as §1

[18] = system: T18, B. vietnamiensis AU10214; assay: microbe, parasite or virus in culture; details: Burkholderia vietnamiensis, AU10214
T18 construct: AU10214
From the text: as §1

[19] = system: T19, B. vietnamiensis AU28056; assay: microbe, parasite or virus in culture; details: Burkholderia vietnamiensis, AU28056
T19 construct: AU28056
From the text: as §1

[20] = system: T20, B. vietnamiensis AU3997; assay: microbe, parasite or virus in culture; details: Burkholderia vietnamiensis, AU3997
T20 construct: AU3997
From the text: as §1

[21] = system: T21, Burkholderia cepacia complex Bcc Indeterminate AU12848; assay: microbe, parasite or virus in culture; details: Burkholderia cepacia
T21 construct: AU12848
From the text: as §1

[22] = system: T22, Burkholderia cepacia complex Bcc Indeterminate AU14962; assay: microbe, parasite or virus in culture; details: Burkholderia cepacia
T22 construct: AU14962
From the text: as §1

Structure (SMILES)	MIC [1]	MIC [2]	MIC [3]	MIC [4]	MIC [5]	MIC [6]	MIC [7]	MIC [8]	MIC [9]	MIC [10]	MIC [11]	MIC [12]	MIC [13]	MIC [14]	MIC [15]	MIC [16]	MIC [17]	MIC [18]	MIC [19]	MIC [20]	further results
C[C@H]1COc2c(N3CCN(C)CC3)c(F)cc3c(=O)c(C(=O)O)cn1c23 [levofloxacin]	4 µg/mL (≈ 11.1 µM)	2 µg/mL (≈ 5.53 µM)	> 32 µg/mL	> 32 µg/mL	8 µg/mL (≈ 22.1 µM)	8 µg/mL (≈ 22.1 µM)	16 µg/mL (≈ 44.3 µM)	4 µg/mL (≈ 11.1 µM)	> 32 µg/mL	4 µg/mL (≈ 11.1 µM)	1 µg/mL (≈ 2.77 µM)	> 32 µg/mL	2 µg/mL (≈ 5.53 µM)	16 µg/mL (≈ 44.3 µM)	> 32 µg/mL	2 µg/mL (≈ 5.53 µM)	32 µg/mL (≈ 88.6 µM)	8 µg/mL (≈ 22.1 µM)	8 µg/mL (≈ 22.1 µM)	8 µg/mL (≈ 22.1 µM)	MIC [21]: 8 µg/mL (≈ 22.1 µM); MIC [22]: 2 µg/mL (≈ 5.53 µM)
CO/N=C(\C(=O)N[C@@H]1C(=O)N2C(C(=O)[O-])=C(C[N+]3(C)CCCC3)CS[C@H]12)c1csc(N)n1 [cefepime]	32 µg/mL (≈ 66.6 µM)	16 µg/mL (≈ 33.3 µM)	> 32 µg/mL	32 µg/mL (≈ 66.6 µM)	32 µg/mL (≈ 66.6 µM)	> 32 µg/mL	> 32 µg/mL	32 µg/mL (≈ 66.6 µM)	32 µg/mL (≈ 66.6 µM)	32 µg/mL (≈ 66.6 µM)	8 µg/mL (≈ 16.6 µM)	32 µg/mL (≈ 66.6 µM)	8 µg/mL (≈ 16.6 µM)	32 µg/mL (≈ 66.6 µM)	32 µg/mL (≈ 66.6 µM)	32 µg/mL (≈ 66.6 µM)	> 32 µg/mL	8 µg/mL (≈ 16.6 µM)	16 µg/mL (≈ 33.3 µM)	8 µg/mL (≈ 16.6 µM)	MIC [21]: > 32 µg/mL; MIC [22]: > 32 µg/mL
C[C@@H](O)[C@H]1C(=O)N2C(C(=O)O)=C(S[C@@H]3CN[C@H](C(=O)N(C)C)C3)[C@H](C)[C@H]12 [meropenem]	8 µg/mL (≈ 20.9 µM)	2 µg/mL (≈ 5.22 µM)	16 µg/mL (≈ 41.7 µM)	4 µg/mL (≈ 10.4 µM)	8 µg/mL (≈ 20.9 µM)	8 µg/mL (≈ 20.9 µM)	8 µg/mL (≈ 20.9 µM)	4 µg/mL (≈ 10.4 µM)	8 µg/mL (≈ 20.9 µM)	4 µg/mL (≈ 10.4 µM)	1 µg/mL (≈ 2.61 µM)	32 µg/mL (≈ 83.4 µM)	8 µg/mL (≈ 20.9 µM)	> 32 µg/mL	4 µg/mL (≈ 10.4 µM)	4 µg/mL (≈ 10.4 µM)	16 µg/mL (≈ 41.7 µM)	0.5 µg/mL (≈ 1.3 µM)	4 µg/mL (≈ 10.4 µM)	1 µg/mL (≈ 2.61 µM)	MIC [21]: 8 µg/mL (≈ 20.9 µM); MIC [22]: 8 µg/mL (≈ 20.9 µM)
